Source: article PMC7870075, “Physicochemical properties and formulation development of a novel compound inhibiting Staphylococcus aureus biofilm formation” (PLoS ONE, 2021)
Values after ≈ are worked out from the molar mass of the structure shown.

Experiment: Solubility in water
Assay type: physicochemical
Method: The concentration of CCG-211790 in deionized water or aqueous solutions was determined using an Agilent series 1100 HPLC system (Agilent Technologies, Santa Clara, CA, USA) equipped with diode array detector. Sample separation was carried out with a Kinetex C18 column (75 mm × 3 mm, particle size 2.6 μm, Phenomenex Inc., Torrance, CA, USA). The mobile phase of acetonitrile-water (50:50, v/v) was used for chromatographic separation. The flow rate was set to 0.5 mL/min, column temperature to 35°C. The absorption was measured at wavelength 255 nm. The injection volume was 30 μL. The retention time of CCG-211790 was 4.9 min. The method detection limit was 0.02 mg/L. Calibration curves were established giving a correlation coefficient >0.9900. To determine the solubility of CCG-211790 in water, an excess amount of CCG-211790 powder was added into water. […] The sample aliquots (0.5 mL each) were centrifuged at 20,000 ×g for 5 min with Amicon Ultra-0.5 Centrifugal Filter Units (MWCO 3000 Da, Millipore Corp., Billerica, MA, USA). Solutions passing through the filter were diluted 2-fold with acetonitrile and CCG-211790 concentration in water was determined by HPLC analysis. The experiment was run in triplicate with mean values and standard deviations being reported.

- solubility class according to the definition of US Pharmacopeia (solubility less than 100 μg/mL): practically insoluble
- solubility at 20 h (thermodynamic from solid, room temperature, 20 h, HPLC): 0.038 ± 0.01 µg/mL (≈ 0.0988 µM)
Compound: COc1ccc2c(c1)-c1nc(SCC(F)(F)F)n(C)c(=O)c1C(C)(C)C2 [CCG-211790, 9-Methoxy-3,5,5-trimethyl-2-((2,2,2-trifluoroethyl)thio)-5,6-dihydrobenzo[h]quinazolin-4(3H)-one]
